Experimental data: patent US20210238698A1, “METHODS OF DIAGNOSING AND TREATING CANCER PATIENTS EXPRESSING HIGH LEVELS OF TGF-B RESPONSE SIGNATURE” (MEDPACTO, INC., priority 2018, published 2021)

Test system: patients with advanced solid tumors
Assay: Phase I trial of single administration of Vactosertib, tumor assessment (anti-tumor activity)
Type: in vivo, human
Text: A ‘responder’ refers to a Patient whose best overall response on treatment was stable disease (SD) or greater, and a ‘non-responder’ refers to a patient whose best overall response on treatment was progression on disease (PD) or worse. The unit for all data of gene expression is TPM (Transcripts Per Kilobase Million). The CD8A gene is implicated in playing an important role in the immune response. The cytolytic score is used to assess anticancer immunity. […]
In particular, the F-TBRS and the cytolytic score in cancer of responders and non-responders at the Phase I trial of single administration of Vactosertib (the compound represented by Formula II; TEW-7197) were analyzed and the results were shown in FIG. 3.
In addition, the EMT/F-TBRS expression distribution from the TCGA database of bladder cancer was analyzed and the results are shown in FIG. 4. […]

For `Cc1cccc(-c2[nH]c(CNc3ccccc3F)nc2-c2ccc3ncnn3c2)n1` [Vactosertib, N-((4-([1,2,4]triazolo[1,5-a]pyridin-6-yl)-5-(6-methylpyridin-2-yl)-1H-imidazol-2-yl)methyl)-2-fluoroaniline], the “patients who achieved SD (stable disease, responder)” value (Phase I, higher doses (≥140 mg, qd)) was “seven” and the tumor shrinkage (one patient with bladder cancer at the Phase I trial, high EMT/F-TBRS expression) was −25%.
